This passage reports mortality and pest or weed control results from patent US20200404919A1, “USE OF HETEROARYL-TRIAZOLE AND HETEROARYL-TETRAZOLE COMPOUNDS AS PESTICIDES IN PLANT PROTECTION” (Bayer Aktiengesellschaft, priority 2018, published 2020).

Molecules are shown by their SMILES.

Holding throughout (assay type): in vivo
The subject of assay [1] is Blattella germanica strain PAULINIA
The assay is described as follows: Blattella germanica test (BLTTGE surface treatment & contact assay). Conditions: 30 minutes exposure, 24 hours after contact, read-out: efficacy (mortality in percent); for mortality at 4 mg/m2: surface concentration 4 mg/m^2, glazed tile; for mortality at 20 mg/m2: surface concentration 20 mg/m^2, glazed tile. How it is done:
Blattella germanica Test (BLTTGE Surface Treatment & Contact Assay)
(§1) Solvent: Aceton+2000 ppm Rapeseed oil methyl ester (RME)
In order to produce a sufficient, active ingredient containing solution it is necessary to solve the test-compound in an acetone/RME solvent mixture. This solution is pipetted onto a glazed tile and after evaporation of the acetone, adult animals of the species Blattella germanica strain PAULINIA are placed onto the dried surface. The exposure time is 30 minutes.
(§2) Mortality in percent (%) is determined 24 hours after contact to the treated surface. 100% mortality means that all test-insects are dead, whereas 0% means that not a single insect died.

The next assay deals with Phaedon cochleariae. The experiment in a line: Phaedon cochleariae - spray test. Conditions: in Brassica rapa, foliar, 168 h, read-out: mortality in %. Here is the method:
Phaedon cochleariae—Spray Test
(§3) To produce a suitable preparation of active compound, 1 part by weight of active compound is mixed with the stated amount of solvents and is diluted with water, containing an emulsifier concentration of 1000 ppm, to the desired concentration. Further test concentrations are prepared by dilution with emulsifier containing water.
Chinese cabbage (Brassica pekinensis) leaf disks are sprayed with a preparation of the active ingredient of the desired concentration. Once dry, the leaf disks are infested with mustard beetle larvae (Phaedon cochleariae).
After 7 days mortality in % is determined. 100% means all beetle larvae have been killed and 0% means none of the beetle larvae have been killed.

The subject of another assay is Myzus persicae. The experiment in a line: Myzus persicae - oral test. Conditions: 120 h, read-out: mortality in %. How it is done: To produce a suitable preparation of active compound, 1 part by weight of active compound is mixed with the stated amount of solvent, and the concentrate is diluted with water to the desired concentration. 50 μl compound solution is filled in microtiter plates and 150 μl IPL41 insect medium (33%+15% sugar) is added to obtain a total volume of 200 μl per well. Afterwards the plates are sealed with parafilm through which a mixed population of the green peach aphid (Myzus persicae) can suck on the compound preparation.
(§4) After 5 days mortality in % is determined. 100% means all aphids have been killed and 0% means none of the aphids have been killed.

The next assay has as its system Nezara viridula. The experiment in a line: Nezara viridula - spray test 1. Conditions: in Hordeum vulgare, 96 h, read-out: mortality in %. Here is the method: Nezara viridula—Spray Test 1
(§5) To produce a suitable preparation of active compound, 1 part by weight of active compound is mixed with the stated amount of solvent, and the concentrate is diluted with water, containing an emulsifier concentration of 1000 ppm, to the desired concentration. Further test concentrations are prepared by dilution with emulsifier containing water.
Barley plants (Hordeum vulgare) infested with larvae of the southern green stink bug (Nezara viridula) are sprayed with a test solution containing the desired concentration of the active ingredient.
After 4 days mortality in % is determined. 100% means all the stink bugs have been killed; 0% means none of the stink bugs have been killed.

A further assay relates to Aphis gossypii. The experiment in a line: Aphis gossypii - oral test. Conditions: 120 h, read-out: mortality in %. Here is the method:
Solvent: 100 parts by weight acetone
(§6) To produce a suitable preparation of active compound, 1 part by weight of active compound is mixed with the stated amount of solvent, and the concentrate is diluted with water to the desired concentration.
50 μl compound solution is filled in microtiter plates and 150 μl IPL41 insect medium (33%+15% sugar) is added to obtain a total volume of 200 μl per well. Afterwards the plates are sealed with parafilm through which a mixed population of the cotton aphid (Aphis gossypii) can suck on the compound preparation.
as §4

Another assay concerns Nilaparvata lugens. The experiment in a line: Nilaparvata lugens - spray test 1. Conditions: in Oryza sativa, 96 h, read-out: mortality in %, 500 g/ha, rice plants, after 4 days. Here is the method: Nilaparvata lugens—Spray Test 1
as §3
Rice plants (Oryza sativa) are sprayed with a preparation of the active ingredient of the desired concentration and the plants are infested with the brown planthopper (Nilaparvata lugens).
After 4 days mortality in % is determined. 100% means all planthoppers have been killed and 0% means none of the planthoppers have been killed.

The test system of a further assay is Spodoptera frugiperda. The assay is described as follows: Spodoptera frugiperda - spray test. Conditions: in Zea mays, 168 h, read-out: mortality in %. Here is the method: Spodoptera frugiperda—Spray Test
as §3
Maize (Zea mays) leaf sections are sprayed with a preparation of the active ingredient of the desired concentration. Once dry, the leaf sections are infested with fall armyworm larvae (Spodoptera frugiperda).
After 7 days mortality in % is determined. 100% means all caterpillars have been killed and 0% means none of the caterpillars have been killed.

The test system of the next assay is Diabrotica balteata. The assay is described as follows: Diabrotica balteata - spray test. The note with it: 168 h, 160 μg/well, germinated wheat seeds, larvae, after 7 days, read-out: efficacy in %. Here is the method: Diabrotica balteata—Spray Test
as §5
Soaked wheat seeds (Triticum aestivum) are placed in a multiple well plate filled with agar and some water and are incubated for 1 day to germinate (5 seeds per well). The germinated wheat seeds are sprayed with a test solution containing the desired concentration of the active ingredient. Afterwards each unit is infected with 10-20 larvae of the banded cucumber beetle (Diabrotica balteata).
After 7 days efficacy in % is determined. 100% means all the seedlings have grown up like in the untreated, uninfected control; 0% means none of the seedlings have grown.

In assay [2] the test system is Aedes aegypti strain MONHEIM. The assay is described as follows: Aedes test (AEDSAE surface treatment & contact assay). The note with it: 30 minutes exposure, 24 hours after contact, read-out: efficacy (mortality in percent); for mortality at 4 mg/m2: surface concentration 4 mg/m^2, glazed tile; for mortality at 20 mg/m2: surface concentration 20 mg/m^2, glazed tile. Here is the method: Aedes Test (AEDSAE Surface Treatment & Contact Assay)
Solvent: Aceton+2000 ppm rapeseed oil methyl ester (RME)
In order to produce a sufficient, active ingredient containing solution it is necessary to solve the test-compound in an acetone/RME solvent mixture. This solution is pipetted onto a glazed tile and after evaporation of the acetone, adult mosquitoes of the species Aedes aegypti strain MONHEIM are placed onto the dried surface. The exposure time is 30 minutes.
as §2

The subject of a further assay is Culex quinquefasciatus. The assay is described as follows: Culex test (CULXFAS surface treatment & contact assay). Conditions: 30 minutes exposure, 24 hours after contact, read-out: efficacy (mortality in percent); for mortality at 4 mg/m2: surface concentration 4 mg/m^2, glazed tile; for mortality at 20 mg/m2: surface concentration 20 mg/m^2, glazed tile. How it is done: Culex Test (CULXFAS Surface Treatment & Contact Assay)
Solvent: Acetone+2000 ppm rapeseed oil methyl ester (RME)
In order to produce a sufficient, active ingredient containing solution it is necessary to solve the test-compound in an acetone/RME solvent mixture. This solution is pipetted onto a glazed tile and after evaporation of the acetone, adult mosquitoes of the species Culex quinquefasciatus (Brown house mosquito) are placed onto the dried surface. The exposure time is 30 minutes.
as §2

Assay [3] relates to Musca domestica strain WHO-N. The experiment in a line: Musca domestica test (MUSCDO surface treatment & contact assay). The note with it: 30 minutes exposure, 24 hours after contact, read-out: efficacy (mortality in percent); for mortality at 4 mg/m2: surface concentration 4 mg/m^2, glazed tile; for mortality at 20 mg/m2: surface concentration 20 mg/m^2, glazed tile. Here is the method: Musca domestica Test (MUSCDO Surface Treatment & Contact Assay)
as §1
In order to produce a sufficient, active ingredient containing solution it is necessary to solve the test-compound in an acetone/RME solvent mixture. This solution is pipetted onto a glazed tile and after evaporation of the acetone, adult flies of the species Musca domestica strain WHO-N are placed onto the dried surface. The exposure time is 30 minutes.
as §2

A further assay concerns Meloidogyne incognita. The assay is described as follows: Meloidogyne incognita - test. Conditions: 336 h, salad seedlings in sand, after 14 days, read-out: nematicidal activity (percentage of gall formation). Here is the method: Meloidogyne incognita—Test
Solvent: 125.0 parts by weight of acetone
as §6
Vessels are filled with sand, a solution of the active ingredient, a suspension containing eggs and larvae of the southern root-knot nematode (Meloidogyne incognita) and salad seeds. The salad seeds germinate and the seedlings grow. Galls develop in the roots.
After 14 days the nematicidal activity is determined on the basis of the percentage of gall formation. 100% means no galls were found and 0% means the number of galls found on the roots of the treated plants was equal to that in untreated control plants.

For the molecule `CC(NC(=O)c1cc(Cl)cc(OC(F)(F)F)c1)c1ncnn1-c1ncccn1` (centres unmarked) [Compound I-119, 3-chloro-N-[1-(2-pyrimidin-2-yl-1,2,4-triazol-3-yl)ethyl]-5-(trifluoromethoxy)benzamide], the mortality at 4 mg/m2 (in assay [1]; in assay [2]; in the assay with Culex quinquefasciatus; in assay [3]) was 80 to 100% throughout. The mortality at 20 mg/m2 (in [1]; in assay [2]; in the assay with Culex quinquefasciatus; in [3]) was 80 to 100% throughout. The mortality at 500 g/ha in the assay with Phaedon cochleariae, in the assay with Nezara viridula, in the assay on Nilaparvata lugens and in the assay with Spodoptera frugiperda was 100% in each case. For the same molecule, the mortality at 20 ppm in the assay on Myzus persicae amounted to 100%. The mortality at 100 ppm in the assay on Aphis gossypii worked out at 100%. Besides, the pest or weed control at 160 µg/disc, 160 µg/well in the assay on Diabrotica balteata stood at 100%.

Take `CC(c1ncnn1-c1ncccn1)N(CC1CC1)C(=O)c1ccc(Cl)cc1` (centres unmarked) [Compound I-109]: the pest or weed control at 160 µg/disc, 160 µg/well with Diabrotica balteata worked out at 100%. The pest or weed control at 20 ppm in the assay with Meloidogyne incognita worked out at 100%.

Consider `CC(NC(=O)c1cc(C(F)(F)F)cc(C(F)(F)F)c1)c1ncnn1-c1ncccn1` (centres unmarked) [Compound I-63, N-[1-(2-pyrimidin-2-yl-1,2,4-triazol-3-yl)ethyl]-3,5-bis(trifluoromethyl)benzamide], for which the mortality at 4 mg/m2 (in [1]; in assay [2]; in the assay with Culex quinquefasciatus; in [3]) was 80 to 100% in each case. In addition, the mortality at 20 mg/m2 (in [1]; in [2]; in the assay with Culex quinquefasciatus; in [3]) was 80 to 100% each time. The mortality at 500 g/ha in the assay with Phaedon cochleariae, with Nezara viridula, in the assay on Nilaparvata lugens and in the assay on Spodoptera frugiperda was 100% each time. Moreover, the mortality at 20 ppm in the assay with Myzus persicae stood at 100%. In the assay on Aphis gossypii, the mortality at 100 ppm came out at 100%. Also, the pest or weed control at 160 µg/disc, 160 µg/well with Diabrotica balteata came to 100%.

As to `Cc1nc(C(C)N(CC2CC2)C(=O)c2cc(Cl)cc(C(F)(F)F)c2)n(-c2ncc(F)cn2)n1` (centres unmarked) [Compound I-77, 3-chloro-N-(cyclopropylmethyl)-N-[1-[2-(5-fluoropyrimidin-2-yl)-5-methyl-1,2,4-triazol-3-yl]ethyl]-5-(trifluoromethyl)benzamide], the mortality at 20 mg/m2 (in assay [1]; in [2]; in the assay on Culex quinquefasciatus; in assay [3]) was 80 to 100% throughout. The mortality at 500 g/ha with Phaedon cochleariae, in the assay on Nezara viridula, in the assay with Nilaparvata lugens and in the assay with Spodoptera frugiperda was 100% each time. For the same molecule, in the assay with Myzus persicae, the mortality at 20 ppm was found to be 100%. Moreover, the mortality at 100 ppm in the assay with Aphis gossypii worked out at 100%. Moreover, in the assay with Diabrotica balteata, the pest or weed control at 160 µg/disc, 160 µg/well stood at 100%. Further, the mortality at 4 mg/m2 (in the assay on Culex quinquefasciatus; in assay [3]) was 80 to 100% in each case.

Consider `C[C@H](NC(=O)c1cc(Cl)cc(C(F)(F)F)c1)c1ncnn1-c1ccc(Cl)cn1` [Compound I-120, 3-chloro-N-[(1S)-1-[2-(5-chloro-2-pyridyl)-1,2,4-triazol-3-yl]ethyl]-5-(trifluoromethyl)benzamide], for which the mortality at 20 mg/m2 (in assay [1]; in [2]; with Culex quinquefasciatus; in assay [3]) was 80 to 100% throughout. The mortality at 500 g/ha in the assay on Phaedon cochleariae, in the assay with Nezara viridula and in the assay on Spodoptera frugiperda was 100% in each case. In the assay on Myzus persicae, the mortality at 20 ppm is 100%. The mortality at 100 ppm with Aphis gossypii worked out at 100%. Further, the pest or weed control at 160 µg/disc, 160 µg/well with Diabrotica balteata was found to be 100%. The mortality at 4 mg/m2 (in assay [2]; with Culex quinquefasciatus; in assay [3]) was 80 to 100% each time.

As for `CC(c1ncnn1-c1ncccn1)N(CC1CC1)C(=O)c1cc(Cl)c(Cl)c(Cl)c1` (centres unmarked) [Compound I-111], the pest or weed control at 20 ppm with Meloidogyne incognita is 90%.

Turning to `CC(NC(=O)c1cc(Cl)cc(C#N)c1)c1ncnn1-c1ncccn1` (centres unmarked) [Compound I-114, 3-chloro-5-cyano-N-[1-(2-pyrimidin-2-yl-1,2,4-triazol-3-yl)ethyl]benzamide], the mortality at 4 mg/m2 (in assay [1]; in [2]; in the assay on Culex quinquefasciatus; in [3]) was 80 to 100% throughout. The mortality at 20 mg/m2 (in assay [1]; in assay [2]; in the assay with Culex quinquefasciatus; in assay [3]) was 80 to 100% in each case. In addition, the mortality at 500 g/ha in the assay on Phaedon cochleariae, in the assay on Nezara viridula, with Nilaparvata lugens and in the assay on Spodoptera frugiperda was 100% each time. Moreover, the mortality at 20 ppm in the assay with Myzus persicae worked out at 100%. Also, the mortality at 100 ppm with Aphis gossypii worked out at 100%. For the same molecule, the pest or weed control at 160 µg/disc, 160 µg/well in the assay on Diabrotica balteata was 100%.
